# From publication PMC10578927, “An unconventional gatekeeper mutation sensitizes inositol hexakisphosphate kinases to an allosteric inhibitor” (eLife, 2023)
# Target: T1, IP6KA^M85V (Entamoeba histolytica, UniProt N9UNA8, M85V)
# T1 sequence (N9UNA8 1-270 M85V): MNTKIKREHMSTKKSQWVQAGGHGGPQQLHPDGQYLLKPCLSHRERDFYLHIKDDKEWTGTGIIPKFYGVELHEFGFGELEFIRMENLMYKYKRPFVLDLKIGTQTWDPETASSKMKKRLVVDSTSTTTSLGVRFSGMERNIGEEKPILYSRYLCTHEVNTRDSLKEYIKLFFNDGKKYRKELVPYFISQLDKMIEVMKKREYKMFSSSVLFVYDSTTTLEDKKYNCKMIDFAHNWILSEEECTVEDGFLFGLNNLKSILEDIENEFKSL
# Assay: NMR activity assay for EhIP6KA constructs
# Format: biochemical
smiles,measurement,value
O=C(O)c1ccc2c(c1)C(=O)N(c1ccc(-c3nc4ccc(N5C(=O)c6ccc(C(=O)O)cc6C5=O)cc4[nH]3)cc1)C2=O [FMP-201300],IC50,780 nM
